Reference: patent publication US10899710B2, “Pyridines and their use in the treatment of cancer” (The United States of America, as represented by the …, priority 2015, dated 2021)
Counter-ions that a name gives are not always drawn.

Experiments:
[1] = test system: UACC-257; assay: Growth inhibition GI50, UACC-257; assay type: cell-based; settings: Homo sapiens, Melanoma
Description: (§1) Cell lines were plated 2000 cells/well in 96-well black optical plates in the presence of 10% FBS media containing 25 nM selenite. The following day cells were treated with various concentrations of the compound of Example 1 (0.1% DMSO final) and incubated for 72 hrs. After the incubation Cell-Quanti Blue reagent was added to each well and incubated for additional 3 hrs. Fluorescence was read ex:530 nm/em:590 nm, and percent of viability was determined using DMSO vehicle and no cell (blank) controls.
(§2) Further results obtained in similar experiments were as indicated below (GI50 refers to concentration of compound yielding 50% growth inhibition; E denotes an exponent to the base 10).

[2] = test system: IGROV1; assay: Growth inhibition GI50, IGROV1; assay type: cell-based; settings: Homo sapiens, IGROV-1, Ovarian Cancer
Description: as §1, §2

[3] = test system: U251; assay: Growth inhibition GI50, U251; assay type: cell-based; settings: Homo sapiens, U-251, CNS Cancer
Description: as §1, §2

[4] = test system: MDA-MB-231/ATCC; assay: Growth inhibition GI50, MDA-MB-231/ATCC; assay type: cell-based; settings: Homo sapiens, Breast Cancer
Description: as §1, §2

[5] = test system: FaDu cell line; assay: Cell viability inhibition, FaDu cell line; assay type: cell-based; settings: Homo sapiens, Biological Example 4, 72 hrs
Description: as §1
Using the assays described in Biological Example 1 to assess inhibition of recombinant TrxR1 and GR, the following IC50 values were obtained for the examples described herein. Further, following the protocol described in Biological Example 2, the following IC50 values were obtained for inhibition of cell viability using the FaDu cell line.

[6] = test system: T-47D; assay: Growth inhibition GI50, T-47D; assay type: cell-based; settings: Homo sapiens, T47D, Breast Cancer
Description: as §1, §2

[7] = test system: HT29; assay: Growth inhibition GI50, HT29; assay type: cell-based; settings: Homo sapiens, HT-29, Colon Cancer
Description: as §1, §2

[8] = test system: SK-MEL-28; assay: Growth inhibition GI50, SK-MEL-28; assay type: cell-based; settings: Homo sapiens, Melanoma
Description: as §1, §2

[9] = test system: K-562; assay: Growth inhibition GI50, K-562; assay type: cell-based; settings: Homo sapiens, K562, Leukemia
Description: as §1, §2

[10] = test system: NCI-H23; assay: Growth inhibition GI50, NCI-H23; assay type: cell-based; settings: Homo sapiens, Non-Small Cell Lung Cancer
Description: as §1, §2

[11] = test system: OVCAR-5; assay: Growth inhibition GI50, OVCAR-5; assay type: cell-based; settings: Homo sapiens, Ovarian Cancer
Description: as §1, §2

[12] = test system: SN12C; assay: Growth inhibition GI50, SN12C; assay type: cell-based; settings: Homo sapiens, Renal Cancer
Description: as §1, §2

[13] = test system: OVCAR-4; assay: Growth inhibition GI50, OVCAR-4; assay type: cell-based; settings: Homo sapiens, Ovarian Cancer
Description: as §1, §2

[14] = test system: HOP-62; assay: Growth inhibition GI50, HOP-62; assay type: cell-based; settings: Homo sapiens, Non-Small Cell Lung Cancer
Description: as §1, §2

[15] = test system: SK-MEL-2; assay: Growth inhibition GI50, SK-MEL-2; assay type: cell-based; settings: Homo sapiens, Melanoma
Description: as §1, §2

[16] = test system: PC-3; assay: Growth inhibition GI50, PC-3; assay type: cell-based; settings: Homo sapiens, Prostate Cancer
Description: as §1, §2

[17] = test system: HS 578T; assay: Growth inhibition GI50, HS 578T; assay type: cell-based; settings: Homo sapiens, Breast Cancer
Description: as §1, §2

[18] = test system: MCF7; assay: Growth inhibition GI50, MCF7; assay type: cell-based; settings: Homo sapiens, Breast Cancer
Description: as §1, §2

[19] = test system: SW-620; assay: Growth inhibition GI50, SW-620; assay type: cell-based; settings: Homo sapiens, Colon Cancer
Description: as §1, §2

[20] = test system: BT-549; assay: Growth inhibition GI50, BT-549; assay type: cell-based; settings: Homo sapiens, Breast Cancer
Description: as §1, §2

[21] = test system: COLO 205; assay: Growth inhibition GI50, COLO 205; assay type: cell-based; settings: Homo sapiens, Colon Cancer
Description: as §1, §2

[22] = test system: SR; assay: Growth inhibition GI50, SR; assay type: cell-based; settings: Homo sapiens, Leukemia
Description: as §1, §2

[23] = test system: HCC-2998; assay: Growth inhibition GI50, HCC-2998; assay type: cell-based; settings: Homo sapiens, Colon Cancer
Description: as §1, §2

[24] = molecular target: T1, gluthathione reductase (GR) (Homo sapiens, UniProt P00390); assay: Inhibition of recombinant GR (GSSG assay); assay type: biochemical
T1 sequence (P00390 44-522): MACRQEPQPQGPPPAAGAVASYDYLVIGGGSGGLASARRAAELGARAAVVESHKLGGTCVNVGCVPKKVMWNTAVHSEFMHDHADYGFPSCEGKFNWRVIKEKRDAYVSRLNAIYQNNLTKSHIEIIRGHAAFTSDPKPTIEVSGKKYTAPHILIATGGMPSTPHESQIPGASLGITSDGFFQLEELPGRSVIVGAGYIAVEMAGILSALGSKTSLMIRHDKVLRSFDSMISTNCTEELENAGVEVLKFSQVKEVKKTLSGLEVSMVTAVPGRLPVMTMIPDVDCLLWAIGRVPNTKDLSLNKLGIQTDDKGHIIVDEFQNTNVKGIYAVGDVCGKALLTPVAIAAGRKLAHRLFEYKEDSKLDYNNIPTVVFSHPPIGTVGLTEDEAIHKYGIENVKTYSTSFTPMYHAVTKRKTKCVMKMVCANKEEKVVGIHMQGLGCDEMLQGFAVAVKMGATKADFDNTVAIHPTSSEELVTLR
Description: Small molecule inhibition of recombinant thioredoxin reductase 1 (TrxR1) and gluthathione reductase (GR) was examined in 96-well plate format. 15 nM TrxR1 was incubated in the presence of 250 μM NADPH, 0.1 mg/ml BSA, and various concentrations of the compound of Example 1 (1% DMSO final) in 50 mM Tris (pH 7.5) and 2 mM EDTA buffer for 15 minutes. Following the incubation period, 2.5 mM DTNB was added to each well and the change in O.D. at 412 nm was followed. Percent activity was determined using DMSO vehicle and no TrxR1 (blank) controls. 2 nM GR was incubated in the presence of 250 μM NADPH, 0.1 mg/ml BSA, and various concentrations of compounds (1% DMSO final) in 50 mM Tris (pH 7.5) and 2 mM EDTA buffer for 15 minutes. Following the incubation period, 1 mM GSSG was added to each well and the change in O.D. at 340 nm was followed. Percent activity was determined using DMSO vehicle and no GR (blank) controls.

[25] = test system: ACHN; assay: Growth inhibition GI50, ACHN; assay type: cell-based; settings: Homo sapiens, Renal Cancer
Description: as §1, §2

[26] = test system: A549/ATCC; assay: Growth inhibition GI50, A549/ATCC; assay type: cell-based; settings: Homo sapiens, Non-Small Cell Lung Cancer
Description: as §1, §2

[27] = test system: DU-145; assay: Growth inhibition GI50, DU-145; assay type: cell-based; settings: Homo sapiens, Prostate Cancer
Description: as §1, §2

[28] = test system: NCI-H226; assay: Growth inhibition GI50, NCI-H226; assay type: cell-based; settings: Homo sapiens, Non-Small Cell Lung Cancer
Description: as §1, §2

[29] = test system: MOLT-4; assay: Growth inhibition GI50, MOLT-4; assay type: cell-based; settings: Homo sapiens, Leukemia
Description: as §1, §2

[30] = test system: TK-10; assay: Growth inhibition GI50, TK-10; assay type: cell-based; settings: Homo sapiens, Renal Cancer
Description: as §1, §2

`COc1ccc([N+](=O)[O-])c(S(=O)(=O)c2ccc(Cl)cc2)n1` [Example 1, 2-((4-Chlorophenyl)sulphonyl)-6-methoxy-3-nitropyridine Hydrochloride] was tested, and the GI50 [1] was 11.3 µM, the GI50 [2] was 12.2 µM and the GI50 [3] was 8.69 µM. The GI50 [4] was 2.83 µM, the IC50 [5] was 2.99 µM and the GI50 [6] was 2.12 µM. For the same molecule, the GI50 [7] was 3.34 µM, the GI50 [8] was 3.57 µM and the GI50 [9] was 3.02 µM. For the same molecule, the GI50 [10] was 4.58 µM, the GI50 [11] was 3.13 µM and the GI50 [12] was 3.82 µM. The GI50 [13] was 2.32 µM, the GI50 [14] was 16.6 µM and the GI50 [15] was 11.4 µM. For the same molecule, the GI50 [16] was 17.3 µM, the GI50 [17] was 13 µM and the GI50 [18] was 2.24 µM. It also gave a GI50 [19] of 2.06 µM, a GI50 [20] of 2.75 µM and a GI50 [21] of 1.96 µM. It also gave a GI50 [22] of 2.99 µM, a GI50 [23] of 8.38 µM and an IC50 ([24]; Biological Example 1, 2 nM GR, 15 minutes incubation) of over 100 µM. For the same molecule, the IC50 ([24]; Biological Example 4) was over 100 µM, the GI50 [25] was 2.08 µM and the GI50 [26] was 18.5 µM. It also gave a GI50 [27] of 9.63 µM, a GI50 [28] of 10.2 µM and a GI50 [29] of 3.59 µM. It also gave a GI50 [30] of 3.57 µM.
